# Measurements as given in patent US11453647B2, “Benzimidazole derivatives as adenosine receptor antagonists” (Merck Patent GmbH, priority 2017, dated 2022).
# Key:
# human A1 receptor = molecular target: T1, human A1 receptor (Homo sapiens, UniProt P30542); experiment: functional cAMP (HTRF) assay, recombinant CHO cells expressing human A1 receptor, forskolin, agonist CPA; type: cell-based
# T1 construct: expressed in transfected cells; host or cells: CHO
# T1 sequence (P30542 1-326): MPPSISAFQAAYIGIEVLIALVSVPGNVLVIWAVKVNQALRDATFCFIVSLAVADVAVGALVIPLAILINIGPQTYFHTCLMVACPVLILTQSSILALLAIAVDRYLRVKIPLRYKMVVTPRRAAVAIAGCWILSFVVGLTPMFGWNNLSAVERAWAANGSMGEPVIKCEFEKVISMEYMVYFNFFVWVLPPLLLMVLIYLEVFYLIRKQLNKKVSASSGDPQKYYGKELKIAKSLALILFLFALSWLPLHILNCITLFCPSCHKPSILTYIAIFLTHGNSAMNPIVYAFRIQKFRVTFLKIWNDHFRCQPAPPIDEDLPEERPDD
# Outline: (§1)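 Recombinant CHO cells expressing A1 or A3 receptor (Gi-coupled) were stimulated with forskolin together with test compound and agonist (CPA for A1, IB-MECA for A3), incubated 30 min, then cellular cAMP was read by HTRF. Data were normalized to inhibitor control and DMSO neutral control, then curve-fitted.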
# human A3 receptor = molecular target: T2, human A3 receptor (Homo sapiens, UniProt P0DMS8); experiment: functional cAMP (HTRF) assay, recombinant CHO cells expressing human A3 receptor, forskolin, agonist IB-MECA; type: cell-based
# T2 construct: expressed in transfected cells; host or cells: CHO
# T2 sequence (P0DMS8 1-318): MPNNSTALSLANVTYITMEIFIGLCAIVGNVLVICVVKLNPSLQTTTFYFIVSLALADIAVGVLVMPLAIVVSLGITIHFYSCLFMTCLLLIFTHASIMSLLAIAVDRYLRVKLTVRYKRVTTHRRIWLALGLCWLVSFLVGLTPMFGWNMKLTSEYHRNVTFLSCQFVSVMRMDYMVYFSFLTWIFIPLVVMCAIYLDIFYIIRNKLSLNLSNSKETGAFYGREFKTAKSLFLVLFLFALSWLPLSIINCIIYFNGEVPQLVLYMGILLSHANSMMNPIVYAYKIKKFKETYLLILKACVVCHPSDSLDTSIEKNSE
# Outline: as §1
# [1] = pharmacokinetic properties in mouse after single intravenous and oral administration; type: in vivo; conditions: PK data in mouse; for Feces iv: @0.2 (dose, unit not given); for clearance / half-life / Cmax / Vd: female, plasma, 0.2 mg/kg; for Cmax: dose-normalized to 1 mg/kg; for Vd: read-out: Vss
# Text: The objective of the study was to obtain information on the pharmacokinetic properties of the compounds of the present invention in female Wistar rats/mice following single intravenous and oral administration.
# Female Wistar rats/mice (n=6) received either a single intravenous (bolus) injection or an oral administration (by gavage) of the tested compound.
# The concentrations of the compounds in plasma, feces were quantified using an UPLC method with tandem mass spectrometric detection (LC-MS/MS) previously developed at the ‘Institute of Drug Metabolism and Pharmacokinetics’. The LC-MS/MS system consisted of a Waters Acquity UPLC coupled to an AB Sciex mass spectrometer API 5500 Q-trap. […] The detection of the compounds was performed using multiple reaction monitoring in the positive ionization mode. Plasma samples were spiked with internal standard (20 μl) and the analyte was extracted from the matrix using tertiary-butyl methyl ether (tBME). The organic phase was evaporated to dryness under a stream of nitrogen. The residue was dissolved in acetonitrile/0.1% formic acid for LC-MS/MS analysis. Feces samples were homogenized with 4-times their volume of an ethanol/water mixture (4:1, v/v). Aliquots of the aqueous-ethanolic extracts were spiked with internal standard, diluted with acetonitrile/water (1:1, v/v) and directly injected into the LC-MS/MS system.
# Pharmacokinetic parameters Cmax and tmax were taken from the observed data. […] AUC values were calculated by non-compartmental analysis using the linear up/log down method. Numerical data for mean plasma concentrations and derived pharmacokinetic parameters were rounded to 3 significant digits for presentation.
# human A2A receptor = molecular target: T3, human A2A receptor (Homo sapiens, UniProt P29274); experiment: functional cAMP (HTRF) assay, recombinant HEK293 cells expressing human A2A receptor, agonist NECA; type: cell-based
# T3 construct: expressed in transfected cells; host or cells: HEK293
# A2B receptors = molecular target: T4, A2B receptors (Homo sapiens, UniProt P29275); experiment: functional cAMP (HTRF) assay, recombinant HEK293 cells expressing human A2B receptor, agonist NECA; type: cell-based; design: expressed in transfected cells; host or cells: HEK293
# T4 sequence (P29275 1-332): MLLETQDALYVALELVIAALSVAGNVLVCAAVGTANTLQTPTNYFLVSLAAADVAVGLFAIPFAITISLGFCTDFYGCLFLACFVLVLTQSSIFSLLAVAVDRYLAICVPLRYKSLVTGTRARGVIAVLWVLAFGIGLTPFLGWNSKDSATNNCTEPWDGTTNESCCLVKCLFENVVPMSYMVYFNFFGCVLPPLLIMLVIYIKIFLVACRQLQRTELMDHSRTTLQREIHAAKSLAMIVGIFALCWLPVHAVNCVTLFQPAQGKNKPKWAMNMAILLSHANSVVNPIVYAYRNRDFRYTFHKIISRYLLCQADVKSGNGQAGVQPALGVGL
# T3 sequence (P29274 whole entry): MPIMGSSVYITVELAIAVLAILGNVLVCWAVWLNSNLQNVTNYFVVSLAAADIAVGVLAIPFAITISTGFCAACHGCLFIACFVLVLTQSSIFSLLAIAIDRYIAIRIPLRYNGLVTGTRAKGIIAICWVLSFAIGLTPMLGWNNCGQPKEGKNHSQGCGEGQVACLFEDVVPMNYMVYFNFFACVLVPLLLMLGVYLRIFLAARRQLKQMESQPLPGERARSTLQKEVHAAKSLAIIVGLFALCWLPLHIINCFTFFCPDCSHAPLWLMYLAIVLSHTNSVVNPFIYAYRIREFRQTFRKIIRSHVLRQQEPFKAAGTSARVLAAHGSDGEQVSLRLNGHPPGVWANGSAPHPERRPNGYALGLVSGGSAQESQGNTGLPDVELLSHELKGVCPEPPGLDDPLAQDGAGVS
SMILES,IC50 (human A1 receptor) [µM],IC50 (human A3 receptor) [µM],Feces iv [1],clearance [1] [mL/min/kg],half-life [1] [min],Cmax [1] [ng/mL],Vd [1] [L/kg],IC50 (human A2A receptor) [µM],IC50 (A2B receptors) [µM]
"COc1ccc(N2CCOCC2)c2nc(NC(=O)c3cnn(C)c3)[nH]c12 [compound 136, N-[7-methoxy-4-(morpholin-4-yl)-1H-1,3-benzodiazol-2-yl]-1-methyl-1H-pyrazole-4-carboxamide]",> 1,> 1,5.6@0.2%,5.55,69,2100,0.522,< 0.01,> 1
"COc1ccc(C2CCOCC2)c2nc(NC(=O)c3ccc(C(=O)N(C)C)cc3)[nH]c12 [compound 133, N4-[7-methoxy-4-(oxan-4-yl)-1H-1,3-benzodiazol-2-yl]-N1,N1-dimethylbenzene-1,4-dicarboxamide]",> 1,> 1,2.5@0.2%,12.7,40.1,2640,0.402,< 0.01,< 1
"COc1ccc(C2CCOCC2)c2nc(NC(=O)c3ccc(Cn4ccnc4)cc3)[nH]c12 [compound 97, 4-[(1H-imidazol-1-yl)methyl]-N-[7-methoxy-4-(oxan-4-yl)-1H-1,3-benzodiazol-2-yl]benzamide]",> 1,> 1,29@0.2%,12.5,58,1050,1.01,< 0.01,< 0.1
"COc1ccc(-c2ccccc2)c2nc(NC(=O)N3CCC(C)(O)CC3)[nH]c12 [compound 12, 4-Hydroxy-4-methyl-piperidine-1-carboxylic acid (7-methoxy-4-phenyl-1H-benzoimidazol-2-yl)-amide]",< 1,< 1,27@0.2%,11.4,42.6,1820,0.568,< 0.01,< 1
"COc1ccc(C2CCOCC2)c2nc(NC(=O)c3ccc(CN4CCCC4=O)cc3)[nH]c12 [compound 138, N-[7-methoxy-4-(oxan-4-yl)-1H-1,3-benzodiazol-2-yl]-4-[(2-oxopyrrolidin-1-yl)methyl]benzamide]",> 1,> 1,,28.5,32.3,1.9,1.06,< 0.01,< 1
"COc1ccc(-c2cnn(C)c2)c2nc(NC(=O)c3ccnc(N4CC[C@@](C)(O)C4)c3)[nH]c12 [compound 107, 2-[(3R)-3-hydroxy-3-methylpyrrolidin-1-yl]-N-[7-methoxy-4-(1-methyl-1H-pyrazol-4-yl)-1H-1,3-benzodiazol-2-yl]pyridine-4-carboxamide]",> 1,< 1,34@0.2%,31.7,37.3,718,1.54,< 0.01,< 1
